The values that follow come from PMC11768629, “Potential Interaction of Pinocembrin with Drug Transporters and Hepatic Drug-Metabolizing Enzymes” (Pharmaceuticals, 2025).

One data set addresses T1, P-gp (Homo sapiens, UniProt P08183).
T1 construct: Caco-2 cell monolayers, which express both P-gp and BCRP; host or cells: Caco-2
Kind of data set: P-gp-mediated 3H-digoxin transepithelial transport in Caco-2 cell monolayers. The settings on record: 10 µM pinocembrin, 0-120 min, compared with vehicle control. Format: cell-based. A general note: Caco-2 monolayers are a common model of the intestinal barrier.

In a further data set the target is T2, hOAT1 (Homo sapiens, UniProt Q4U2R8).
T2 construct: host or cells: MDCK
T2 sequence (Q4U2R8 1-563): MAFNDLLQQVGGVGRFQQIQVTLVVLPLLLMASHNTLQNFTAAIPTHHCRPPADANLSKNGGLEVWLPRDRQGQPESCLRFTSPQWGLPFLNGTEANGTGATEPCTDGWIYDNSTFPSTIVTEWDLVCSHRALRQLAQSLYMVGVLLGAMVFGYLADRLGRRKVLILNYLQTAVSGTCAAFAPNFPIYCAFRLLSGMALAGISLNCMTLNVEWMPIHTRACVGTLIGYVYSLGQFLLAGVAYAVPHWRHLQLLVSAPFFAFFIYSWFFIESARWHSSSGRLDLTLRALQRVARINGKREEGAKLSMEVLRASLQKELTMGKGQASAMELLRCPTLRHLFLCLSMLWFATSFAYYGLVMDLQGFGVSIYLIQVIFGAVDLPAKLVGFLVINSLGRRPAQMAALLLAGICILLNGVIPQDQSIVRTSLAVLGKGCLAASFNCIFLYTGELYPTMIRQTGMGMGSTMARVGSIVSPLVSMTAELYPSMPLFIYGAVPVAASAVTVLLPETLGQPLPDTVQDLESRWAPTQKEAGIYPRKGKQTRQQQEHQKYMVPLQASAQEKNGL
Kind of data set: Cis-inhibition assay, 3H-PAH uptake in hOAT1-MDCK cells. Format: cell-based. The settings on record: 10 µM pinocembrin, compared with vehicle control. Here is the method:
(§1) Next, the effects of pinocembrin on the transport function of renal drug transporters, including hOAT1, hOAT3, hOCT1, hOCT2, hMATE1, and hMATE2, were determined.
(§2) A cell monolayer comprising hOAT1-MDCK, hOAT3-MDCK, hOCT1-CHO-K1, hOCT2-CHO-K1, hMATE1-CHO-K1, hMATE2-CHO-K1, and mock cells were utilized for the uptake experiments. The cells were washed three times with a buffer containing (in mM) 140 NaCl, 5 KCl, 0.4 MgSO4, 0.5 MgCl2, 1 CaCl2, 0.3 Na2HPO4, 0.4 KH2PO4, 6 D-glucose, and 4 NaHCO3 at pH 7.4 and incubated at 37 °C for 15 min. After incubation, the hOAT1-MDCK and hOAT3-MDCK cells were incubated for 10 min with ^3H-PAH and ^3H-estrone sulfate, a substrate of hOAT1 and hOAT3, respectively. The hOCT1-CHO-K1 and hOCT2-CHO-K1 cells were incubated with ^3H-MPP^+, a substrate of OCT1 and OCT2, for five minutes. The functions of MATE1 and MATE2 were determined by incubating the hMATE1-CHO-K1 and hMATE2-CHO-K1 cells with a buffer containing ^3H-MPP^+, a substrate of MATE1 and MATE2, at pH 8.5 for five minutes. The cells were washed three times with an ice-cold buffer to stop the transport function. The cells were lyzed with 0.4 N NaOH for at least four hours. The samples were collected and transferred to vials containing a liquid scintillation cocktail to measure radioactivity by a β-counter (Packard BioScience, Wellesley, MA, USA). […]

For another data set, the target named is T3, hMATE2 (Homo sapiens, UniProt Q86VL8).
T3 construct: host or cells: CHO-K1
Kind of data set: Cis-inhibition assay, 3H-MPP+ uptake in hMATE2-CHO-K1 cells. The settings on record: pinocembrin, pH 8.5. Format: cell-based. On the procedure: as §1, §2

The target of a further data set is T4, CYP2C19 (Homo sapiens, UniProt P33261).
T4 construct: purchased Life Technologies
Put plainly: Cell-free CYP450 inhibition assay, CYP2C19. The settings on record: cell-free fluorescent probe assay. Format: biochemical. Here is the method:
To determine whether pinocembrin influences the catalytic activity of CYP450 enzymes, fluorescent probe reaction assays were performed using varying concentrations of pinocembrin. […] In addition, molecular docking was conducted to better understand the binding mode and interactions between pinocembrin and human CYP2C19.
The CYP450 inhibitory activity of pinocembrin was determined using a P450 screening kit (Life Technologies; Carlsbad, CA, USA). Varied concentrations of pinocembrin were prepared in methanol. […] The fluorescence intensities were monitored every minute for 60 min at room temperature. The percentage of inhibition was calculated according to the following equation: % Inhibition=(1−X−B/A−B)×100% where X is the fluorescence intensity observed in the presence of pinocembrin.

The next data set deals with BCRP. The arrangement: method as in PMID 22263589, PMID 23497885. The settings on record: cited from earlier work.
Another data set concerns CYP2D6. Further details: method as in PMID 34069400, doi:10.5562/cca3652, PMID 26626242. The settings on record: cited from earlier work.

The structures appear in SMILES notation.

The term IC50 denotes the point on the concentration scale where inhibition reaches its midpoint.

T4 sequence (P33261 whole entry): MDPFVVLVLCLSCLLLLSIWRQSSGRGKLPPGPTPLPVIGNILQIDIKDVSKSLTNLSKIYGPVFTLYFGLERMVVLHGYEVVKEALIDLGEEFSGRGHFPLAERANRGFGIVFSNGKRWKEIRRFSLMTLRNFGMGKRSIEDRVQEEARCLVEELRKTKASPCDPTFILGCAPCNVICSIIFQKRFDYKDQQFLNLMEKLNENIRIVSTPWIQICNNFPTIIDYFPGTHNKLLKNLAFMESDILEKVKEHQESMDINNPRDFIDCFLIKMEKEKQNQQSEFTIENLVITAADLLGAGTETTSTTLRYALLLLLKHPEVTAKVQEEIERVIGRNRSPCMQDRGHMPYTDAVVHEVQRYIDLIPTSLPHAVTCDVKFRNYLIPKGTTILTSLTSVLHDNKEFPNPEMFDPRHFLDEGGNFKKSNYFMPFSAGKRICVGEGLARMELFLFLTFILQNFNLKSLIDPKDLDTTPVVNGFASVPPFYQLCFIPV
T3 sequence (Q86VL8 whole entry): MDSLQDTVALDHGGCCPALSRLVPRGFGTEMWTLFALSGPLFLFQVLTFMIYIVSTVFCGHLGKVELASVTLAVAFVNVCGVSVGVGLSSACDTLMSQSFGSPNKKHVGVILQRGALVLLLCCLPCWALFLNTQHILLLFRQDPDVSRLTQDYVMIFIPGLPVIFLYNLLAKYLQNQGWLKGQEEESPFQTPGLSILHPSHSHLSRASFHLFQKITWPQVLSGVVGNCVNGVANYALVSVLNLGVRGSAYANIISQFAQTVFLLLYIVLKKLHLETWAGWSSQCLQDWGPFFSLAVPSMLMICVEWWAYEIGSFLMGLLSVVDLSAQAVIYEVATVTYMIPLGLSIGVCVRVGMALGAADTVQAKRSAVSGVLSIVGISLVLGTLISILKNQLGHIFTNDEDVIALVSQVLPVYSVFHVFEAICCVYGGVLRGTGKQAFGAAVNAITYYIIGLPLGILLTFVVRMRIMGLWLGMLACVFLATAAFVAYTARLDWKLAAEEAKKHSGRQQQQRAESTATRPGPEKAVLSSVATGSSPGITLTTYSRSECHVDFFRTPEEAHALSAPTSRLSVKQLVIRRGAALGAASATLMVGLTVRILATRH
T1 sequence (P08183 whole entry): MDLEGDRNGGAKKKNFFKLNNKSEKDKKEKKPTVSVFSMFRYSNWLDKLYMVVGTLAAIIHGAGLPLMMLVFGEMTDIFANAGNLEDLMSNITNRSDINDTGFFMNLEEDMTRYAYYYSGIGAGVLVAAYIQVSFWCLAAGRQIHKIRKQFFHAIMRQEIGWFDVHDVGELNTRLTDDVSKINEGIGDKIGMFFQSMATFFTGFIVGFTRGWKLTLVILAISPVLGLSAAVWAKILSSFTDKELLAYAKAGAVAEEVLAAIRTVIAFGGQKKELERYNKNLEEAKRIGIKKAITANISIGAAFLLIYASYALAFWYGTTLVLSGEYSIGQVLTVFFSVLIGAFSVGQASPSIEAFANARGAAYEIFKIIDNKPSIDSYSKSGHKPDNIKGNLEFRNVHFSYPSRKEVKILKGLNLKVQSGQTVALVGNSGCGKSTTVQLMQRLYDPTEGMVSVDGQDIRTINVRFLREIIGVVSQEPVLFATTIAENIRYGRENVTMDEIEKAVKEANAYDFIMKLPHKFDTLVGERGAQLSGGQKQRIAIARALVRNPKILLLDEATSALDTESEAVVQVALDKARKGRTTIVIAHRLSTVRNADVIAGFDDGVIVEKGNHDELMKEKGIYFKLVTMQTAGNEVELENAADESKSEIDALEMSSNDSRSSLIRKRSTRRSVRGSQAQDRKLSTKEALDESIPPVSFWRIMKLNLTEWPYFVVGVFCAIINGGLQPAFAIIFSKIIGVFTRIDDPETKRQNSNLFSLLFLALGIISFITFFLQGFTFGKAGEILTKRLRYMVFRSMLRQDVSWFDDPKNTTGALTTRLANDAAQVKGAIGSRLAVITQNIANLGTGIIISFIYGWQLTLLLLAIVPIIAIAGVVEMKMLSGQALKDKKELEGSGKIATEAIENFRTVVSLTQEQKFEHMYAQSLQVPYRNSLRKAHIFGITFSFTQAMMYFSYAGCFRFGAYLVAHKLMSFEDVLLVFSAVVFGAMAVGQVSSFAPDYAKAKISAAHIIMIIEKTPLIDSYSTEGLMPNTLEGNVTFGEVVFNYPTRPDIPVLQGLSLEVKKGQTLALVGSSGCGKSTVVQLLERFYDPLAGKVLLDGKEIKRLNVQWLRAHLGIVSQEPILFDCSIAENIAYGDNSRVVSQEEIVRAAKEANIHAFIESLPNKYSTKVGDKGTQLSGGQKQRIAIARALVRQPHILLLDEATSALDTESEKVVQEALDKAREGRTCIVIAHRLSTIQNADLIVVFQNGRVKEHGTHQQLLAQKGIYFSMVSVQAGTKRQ
Description for P-gp: The interactions of pinocembrin with P-gp and BCRP were determined by the measurement of P-gp-mediated ^3H-digoxin transport and BCRP-mediated ^3H-estrone sulfate transport in Caco-2 cell monolayers, which express both P-gp and BCRP [20]. The apical sides of the Caco-2 cell monolayers were incubated with a buffer containing ^3H-digoxin alone, ^3H-digoxin plus 10 µM pinocembrin or ^3H-digoxin plus 100 µM verapamil (P-gp inhibitor).
P-gp- and BCRP-mediated transport were measured by the transepithelial transport of their substrates (^3H-digoxin for P-gp and ^3H-estrone sulfate for BCRP) in Caco-2 cell monolayers. […] Caco-2 cells were cultured on membrane inserts (Corning Inc., Corning, NY, USA) for 21 days. […] The basolateral side was replaced with a transport buffer. The sample from the basolateral side was transferred to vials containing a liquid scintillation cocktail to measure radioactivity by a β-counter (Packard BioScience, Wellesley, MA, USA).

For `O=C1C[C@@H](c2ccccc2)Oc2cc(O)cc(O)c21` [pinocembrin], at P-gp, the “transport of 3H-digoxin from the apical to basolateral side” value is “did not alter”. Moreover, the 3H-PAH cellular accumulation result on hOAT1 is recorded as “significantly decreased”. In addition, the “hMATE2-mediated uptake of 3H-MPP+” value at hMATE2 is reported as “did not alter”. The molecule also displayed an IC50 against CYP2C19 (BACULOSOMES) of 4.5 µM. Moreover, at CYP2C19 (human, CYP2C19 BACULOSOMES (cell-free recombinant enzyme)), the IC50 at 60 min stood at 4.49 µM. The “effect on BCRP” value in the data set on BCRP is reported as “weakly inhibited”. Also, the “effect on the activity of CYP2D6” value with CYP2D6 is reported as “inhibits the activities”.
